These results are taken from patent publication US7635722B1, “Chemical induced intracellular hyperthermia” (priority 1998, dated 2009).

The format of series [1] is in vivo, human. The protocol:
Placement of physiologic monitoring sensors, intravenous fluids, supplemental oxygen (4 l/min) and optional oral diazepam sedation (5-10 mg) is initiated prior to treatment. Patients receive 0.85 to 1.0 liter of intravenous (IV) 5% dextrose in 0.25 normal saline per hour alternated with 5% dextrose in 0.5 normal saline plus 7.5 to 10 meq of KCl per liter to insure a urinary output of no less than 1 ml/kg/hr. […] Two hours after treatment and 48 hours post-treatment, serum chemistries and hematologic profiles are repeated. A typical patient flow chart is depicted in FIG. 14.
Pretreatment protocol: the patient was given 10 mg diazepam by mouth and dressed into a modified wet suit. The wet suit was cut lengthwise at the arms and legs. Velcro strappings were attached at the cuttings for closure, rapid removal or exposure of the limb(s). After placement of monitoring sensors, they were started on IV fluids of 5% dextrose, 0.5 normal saline with 7 meq K^+, infused at an initial rate of 12 cc/kg/hr. Evaporative heat loss from the head was minimized by a plastic shower cap and towels. A 401AC temperature probe (YSI Incorporated, Yellow Springs, Ohio) was inserted 11 cm. into the rectum. […] A TEEM 100 Metabolic Analysis System (AeroSport Inc., Ann Arbor, Mich.), with a modified face mask and oxygen delivery system (38-40% 02 saturation) for patient comfort and increased accuracy, was attached to the patient. Oxygen consumption (V02), carbon dioxide production (VC02), expired air volume (VE), heart rate (HR), and Kcal of heat produced were measured in 20 second intervals and extrapolated to minute or hourly rates.
Pretreatment protocol: all medications were stopped 2 weeks prior to treatment. The patient refused taking diazepam, placement of a Foley catheter and oxygen face mask. They dressed themself into a dry cold water immersion suit (Stearns, ISS-590I, Universal Adult) designed to prevent heat loss and modified for easy placement of physiologic monitors. Equipment for measurement of heart rate, temperature, carbon dioxide production and Kcal of heat produced were conducted as outlined in Example 1. An oral breathing tube was used to measure V02 from room air. Urine output was measured when the patient voluntarily urinated through a “Texas” catheter (superficial condom tightly fitted around the head of the penis with tubing connected to urine collection bag). The patient was informed that hyperthermia would be administered as tolerated by their stamina and monitored clinical parameters, not to exceed 5 hours, on a daily or every other day basis, for a total of 5 sessions.
Pretreatment protocol: the evening prior treatment the patient was instructed not to eat and dress in cotton undergarments. Approximately 4 hours prior to treatment 2 mg alprazolam was administered by mouth. The patient dressed themself into a dry cold water immersion suit (Stearns, previously described) with headgear. Monitoring sensors, including EKG display, IV fluids and Foley catheter were attached and the suit was zipped closed. The patient opted for oxygen supplementation. The modified face mask was connected to the TEEM 100 metabolic Analysis System for V02 measurements. Data was recorded as previously described.
Pretreatment protocol: the patient was transfused with three units of packed red blood cells. A Foley catheter was inserted on each day of treatment. They were covered in a water soaked blanket containing a polyethylene lining. A shower cap with towels was used to prevent heat loss from the head. Intravenous lines were placed into both arms with 19 gauge intracaths. EKG, heart rate, rectal thermistor, and V02 monitors were attached. Oxygen supplemented facemask and equipment was attached and data monitored as previously described under Example 1.
Pretreatment protocol: the patient was transfused with 2 units of packed red blood cells 48 hours prior to undergoing treatment. Intravenous fluids (Lactated Ringer's solution) were administered at a rate of 100 cc/hour. […]

For series [2] the following is noted: cited from earlier work.
The subject of series [3] is hepatocyte. Particulars: in less than 6 minutes after the hormonal action of glucagon; cited from earlier work.
For series [4], the system named is hepatitis C virus. Briefly: DNP with interferon-alpha, chronic hepatitis C (Example 10). In kind it is in vivo, human. Particulars: patient history.

Where two headings read alike, the source gives them in different places.

With `CNC(C)(C)Cc1ccccc1.CNC(C)(C)Cc1ccccc1.O=S(=O)(O)O` [Mephenteramine sulfate], the heart rate in series [1] (Example 4, ten minutes after 30 mg intramuscular, before DNP) was 96. In series [1] (Example 4, ten minutes after 30 mg intramuscular, before DNP, from 250), this compound gave a V02 of 320 cc/min.

As to `NC[C@H](O)c1ccc(O)c(O)c1` [Norepinephrine bitartrate (Levophed), Norepinephrine bitartrate], in series [1] (Example 2, about 1 minute after vasopressor IV drip 1 microgram/min on DNP, from 90), the heart rate was determined as 100. Besides, the V02 in series [1] (Example 2, about 1 minute after vasopressor IV drip on DNP) is 0.85 L/min. Further, the core body temperature in series [1] (Example 2, within 20 minutes of vasopressor on DNP) is 41.5 °C.

The half-life is how long it takes for the measured level to halve. `Oc1ccc(CCCCNC[C@H](O)c2ccc(O)c(O)c2)cc1` [arbutamine]: the half-life in series [2] (in vivo) was 10 min.

Take `NCCc1ccc(O)c(O)c1` [dopamine]: the V02 in series [1] (human, in vivo) is 680-710 cc/min.

On to `CN(C)c1ccc2nc3ccc(=[N+](C)C)cc-3sc2c1` [methylene blue], for which, in series [1] (Example 9, after methylene blue 2 mg/kg infusion, on DNP 3 mg/kg), the VO2 is 450-500 cc/minute.

As for `NC(=O)CC[C@@H]1NC(=O)[C@H](Cc2ccccc2)NC(=O)[C@H](Cc2ccc(O)cc2)NC(=O)[C@@H](N)CSSC[C@@H](C(=O)N2CCC[C@H]2C(=O)N[C@@H](CCCN=C(N)N)C(=O)NCC(N)=O)NC(=O)[C@H](CC(N)=O)NC1=O` [vasopressin], the half-life in series [2] (in vivo) is 5 min.

On to glucagon, for which, in series [3], the “stimulation of hepatocyte uncoupled V02” value is recorded as “up to 100%”. For the same compound, the half-life in series [2] (in plasma) is 9 min.

Turning to interferon alpha-2b, in series [4] (after 6 months of interferon alpha-2b with ribavirin, before relapse), the HCV-RNA entry is recorded as “undetectable”. For the same compound, the hemoglobin concentration in series [4] (after 12 weeks of interferon alpha-2b with ribavirin, anemia) is 9.2 g/deciliter.
